Literature values as cited in PubChem BioAssay AID1259410 (Chemical Carcinogenesis Research Information System (CCRIS), 2018).

Tested on: rodent tumor promotion studies, tumor incidence
Test: CCRIS tumor promotion studies

Structure (SMILES): Clc1cccc(-c2ccc(Cl)c(Cl)c2Cl)c1Cl
- outcome (Carcinogen: 4-(METHYLNITROSAMINO)-1-(3-PYRIDYL)-1-BUTANONE, 64091-91-4, Doses [Carcinogen]: 50 MG/KG ON D 4 OF LIFE, Doses [Promoter]: 500 MG/KG ONCE ON D 56 OF LIFE (STUDY DURATION: 52 WK), Route [Carcinogen]: INTRAPERITONEAL, Route [Promoter]: INTRAGASTRIC, Species: MOUSE, Strain/Sex: SWISS/FEMALE): lung: tumor
- outcome (Carcinogen: 4-(METHYLNITROSAMINO)-1-(3-PYRIDYL)-1-BUTANONE, 64091-91-4, Doses [Carcinogen]: 100 MG/KG (0.5 MMOL) IN 0.9% STERILE SALINE ON DAYS 15, 17, AND 19 OF GESTATION, Doses [Promoter]: 0, 500 MG/KG IN OLIVE OIL ON POSTNATAL DAY 56 (STUDY DURATION: 72 WK), Route [Carcinogen]: TRANSPLACENTAL, Route [Promoter]: GAVAGE, Species: MOUSE, Strain/Sex: SWISS/MALE): liver: hepatocellular adenoma or carcinoma
- outcome (Carcinogen: 4-(METHYLNITROSAMINO)-1-(3-PYRIDYL)-1-BUTANONE, 64091-91-4, Doses [Carcinogen]: 100 MG/KG IN 0.9% SALINE ON GESTATION DAYS 15, 17 AND 19, Doses [Promoter]: 500 MG/KG ONCE ON D 56 OF LIFE TO OFFSPRING OF CARCINOGEN-TREATED MOTHERS (STUDY DURATION: 52 WK), Route [Carcinogen]: INTRAPERITONEAL, Route [Promoter]: INTRAGASTRIC, Species: MOUSE, Strain/Sex: SWISS/MALE): lung: tumor
- outcome (Carcinogen: DIETHYLNITROSAMINE, 55-18-5, Doses [Carcinogen]: 90 MG/KG BW ONCE, Doses [Promoter]: 0, 100 PPM IN DIET FOR 20 WK BEGINNING 3 WK POST CARCINOGEN DOSE (STUDY DURATION: 47 WK), Route [Carcinogen]: INTRAPERITONEAL, Route [Promoter]: ORAL, Species: MOUSE, Strain/Sex: C57BL/MALE): liver: tumor
- outcome (Carcinogen: DIETHYLNITROSAMINE, 55-18-5, Doses [Carcinogen]: 1100 PPM IN DIET FOR 1 YR, Doses [Promoter]: 0, 100 PPM IN DIET FOR 1 YR (STUDY DURATION: 1 YR), Route [Carcinogen]: ORAL, Route [Promoter]: ORAL, Species: FISH, Strain/Sex: RAINBOW TROUT/MALE, FEMALE): liver: hepatocellular carcinoma
- outcome (Carcinogen: DIISOPROPANOLNITROSAMINE [53609-64-6], Doses [Carcinogen]: SINGLE DOSE OF 2.5 G/KG BW, Doses [Promoter]: 100 PPM IN DIET BEGINNING 1 WK AFTER DIPN TREATMENT FOR 19 WKS (STUDY DURATION: 20 WKS), Route [Carcinogen]: SUBCUTANEOUS INJECTION, Route [Promoter]: DIET, Species: RAT, Strain/Sex: SPRAGUE-DAWLEY/MALE): thyroid: carcinoma
- outcome (Carcinogen: N-NITROSODIETHYLAMINE, 55-18-5, Doses [Carcinogen]: 90 MG/KG BW ONCE, Doses [Promoter]: 0, 175, 350 PPM IN DIET FOR 53 WK BEGINNING 2 WK POST CARCINOGEN DOSE (STUDY DURATION: 55 WK), Doses [Promoter]: 0, 175, 350 PPM IN DIET FOR 53 WK BEGINNING 2 WK POST CARCINOGEN DOSE (STUDY DURATION: 55 WK), Route [Carcinogen]: INTRAPERITONEAL, Route [Promoter]: ORAL, Species: MOUSE, Strain/Sex: D2B6F1/MALE): liver: hepatocellular adenoma, hepatocellular carcinoma
- outcome (Carcinogen: N-NITROSODIMETHYLAMINE, 62-75-9, Doses [Carcinogen]: 5 MG/KG IN SALINE ONCE AT 4 DAYS OF AGE, Doses [Promoter]: 0, 250 MG/KG IN OLIVE OIL ONCE AT 8 DAYS OF AGE (STUDY DURATION: 28 WK), Route [Carcinogen]: INTRAPERITONEAL, Route [Promoter]: GAVAGE, Species: MOUSE, Strain/Sex: SWISS/MALE): lung: tumor
- outcome (Carcinogen: N-NITROSODIMETHYLAMINE, 62-75-9, Doses [Carcinogen]: 5 MG/KG IN SALINE ONCE AT 4 DAYS OF AGE, Doses [Promoter]: 0, 250 MG/KG IN OLIVE OIL ONCE AT 8 DAYS OF AGE (STUDY DURATION: 52 WK), Route [Carcinogen]: INTRAPERITONEAL, Route [Promoter]: GAVAGE, Species: MOUSE, Strain/Sex: SWISS/MALE): lung: tumor; liver: tumor
- outcome (Carcinogen: N-NITROSODIMETHYLAMINE, 62-75-9, Doses [Carcinogen]: 5 MG/KG ON D 4 OF LIFE, Doses [Promoter]: 500 MG/KG ONCE ON D 56 OF LIFE (STUDY DURATION: 52 WK), Route [Carcinogen]: INTRAPERITONEAL, Route [Promoter]: INTRAGASTRIC, Species: MOUSE, Strain/Sex: SWISS/MALE): lung: tumor; liver: tumor
- outcome (Carcinogen: N-NITROSODIMETHYLAMINE, 62-75-9, Doses [Carcinogen]: 10 MG/KG IN SALINE ON GESTATION D 19, Doses [Promoter]: 500 MG/KG ONCE ON D 56 OF LIFE TO OFFSPRING OF CARCINOGEN-TREATED MOTHERS (STUDY DURATION: 52 WK), Route [Carcinogen]: INTRAPERITONEAL, Route [Promoter]: INTRAGASTRIC, Species: MOUSE, Strain/Sex: SWISS/MALE): lung: tumor

Structure (SMILES): CCCCCCCCCCC(C)C1(CCC(=O)OC2C(C)C3(O)C(C=C(CO)CC4(O)C(=O)C(C)=CC43)C3C(C)(C)C23OC(C)=O)OCC(C)(C)N1[O] (configuration not stated)
- outcome (Carcinogen: 7,12-DIMETHYLBENZ[A]ANTHRACENE, 57-97-6, Doses [Carcinogen]: 100 NMOL ONCE, Doses [Promoter]: 0, 20 NMOL 2/WK FOR 24 WK BEGINNING 1 WK POST CARCINOGEN DOSE (STUDY DURATION: 25 WK), Route [Carcinogen]: DERMAL, Route [Promoter]: DERMAL, Species: MOUSE, Strain/Sex: NMRI/FEMALE): skin: tumor

Structure (SMILES): ClC(Cl)=C(Cl)C(Cl)=C(Cl)Cl
- outcome (Carcinogen: N-ETHYL-N-HYDROXYETHYLNITROSAMINE, 13147-25-6, Doses [Carcinogen]: 0.1% IN DRINKING WATER FOR 2 WK, Doses [Promoter]: 0, 0.1% IN DIET FOR 30 WK BEGINNING POST CARCINOGEN TREATMENT (STUDY DURATION: 32 WK), Route [Carcinogen]: ORAL, Route [Promoter]: ORAL, Species: RAT, Strain/Sex: WISTAR/MALE): kidney: renal cell tumor

Structure (SMILES): CCN(CC)CCCC(C)Nc1c2ccc(Cl)cc2nc2ccc(OC)cc12 (configuration not stated)
- outcome (Carcinogen: N-NITROBIS(2-OXOPROPYL)AMINE, 60599-38-4, Doses [Carcinogen]: 10 MG/KG BW 1/WK FOR 3 WK, Doses [Promoter]: 0, 100 PPM IN DIET FOR 37 WK BEGINNING POST CARCINOGEN TREATMENT (STUDY DURATION: 40 WK), Route [Carcinogen]: SUBCUTANEOUS, Route [Promoter]: ORAL, Species: HAMSTER, Strain/Sex: SYRIAN/FEMALE): pancreas: adenocarcinoma; liver: hepatocellular adenoma or carcinoma
- outcome (Carcinogen: N-NITROBIS(2-OXOPROPYL)AMINE, 60599-38-4, Doses [Carcinogen]: 10 MG/KG BW 1/WK FOR 3 WK, Doses [Promoter]: 0, 300 PPM IN DIET FOR 37 WK BEGINNING POST CARCINOGEN TREATMENT (STUDY DURATION: 40 WK), Route [Carcinogen]: SUBCUTANEOUS, Route [Promoter]: ORAL, Species: HAMSTER, Strain/Sex: SYRIAN/FEMALE): liver: hepatocellular adenoma or carcinoma

Structure (SMILES): C=C[C@@](C)(CCC=C(C)C)c1ccc2c3c(c[nH]c13)C[C@@H](CO)NC(=O)[C@H](C(C)C)N2C
- outcome (Carcinogen: 7,12-DIMETHYLBENZ[A]ANTHRACENE, 57-97-6, Doses [Carcinogen]: 100 UG IN 0.1 ML ACETONE, Doses [Promoter]: 0, 3 UG IN 0.1 ML ACETONE 2/WK FOR 29 WK BEGINNING 1 WK POST CARCINOGEN DOSE (STUDY DURATION: 30 WK), Route [Carcinogen]: DERMAL, Route [Promoter]: DERMAL, Species: MOUSE): skin: tumor
- outcome (Carcinogen: DIMETHYLBENZ[A]ANTHRACENE, 57-97-6, Doses [Carcinogen]: 100 UG IN 100 µL ACETONE APPLIED TO THE BACK ONCE, Doses [Promoter]: 2.5 UG IN 100 µL ACETONE APPLIED TO THE BACK FOR 30 WK BEGINNING 1 WK POST CARCINOGEN DOSE (STUDY DURATION: 31 WK), Route [Carcinogen]: DERMAL, Route [Promoter]: DERMAL, Species: MOUSE, Strain/Sex: CD-1/FEMALE): skin: papilloma

Structure (SMILES): Cc1cccc(Nc2cc(Cl)nc(SCC(=O)O)n2)c1C
- outcome (Carcinogen: 2-ACETYLAMINOFLUORENE, 53-96-3, Doses [Carcinogen]: 0.02% IN DIET FOR 8 WK, Doses [Promoter]: 0, 0.1% IN DIET FOR 37 WK BEGINNING 2 WK POST CARCINOGEN TREATMENT (STUDY DURATION: 39 WK), Route [Carcinogen]: ORAL, Route [Promoter]: ORAL, Species: RAT, Strain/Sex: F344/MALE): liver: adenoma
- outcome (Carcinogen: DIETHYLNITROSAMINE, 55-18-5, Doses [Carcinogen]: 150 MG/KG BW ONCE, Doses [Promoter]: 0, 0.1% IN DIET FOR 37 WK BEGINNING 2 WK POST CARCINOGEN TREATMENT (STUDY DURATION: 39 WK), Route [Carcinogen]: INTRAPERITONEAL, Route [Promoter]: ORAL, Species: RAT, Strain/Sex: F344/MALE): liver: adenoma
- outcome (Carcinogen: DIETHYLNITROSAMINE, 55-18-5, Doses [Carcinogen]: 150 MG/KG ONCE, Doses [Promoter]: 0.1% IN DIET BEGINNING 2 WK POST CARCINOGEN DOSE AND CONTINUING FOR 54 WK (STUDY DURATION: 56 WK), Route [Carcinogen]: INTRAPERITONEAL, Route [Promoter]: ORAL, Species: RAT, Strain/Sex: F344/MALE): liver: hepatocellular carcinoma or neoplastic nodule
- outcome (Carcinogen: DIETHYLNITROSAMINE, 55-18-5, Doses [Carcinogen]: 150 MG/KG ONCE, Doses [Promoter]: 0.1% IN DIET BEGINNING 2 WK POST CARCINOGEN DOSE FOR 71 WK FOLLOWED BY CONTROL DIET FOR DURATION OF STUDY (STUDY DURATIO, Route [Carcinogen]: INTRAPERITONEAL, Route [Promoter]: ORAL, Species: RAT, Strain/Sex: F344/MALE): liver: hepatocellular carcinoma or neoplastic nodule
- outcome (Carcinogen: DIETHYLNITROSAMINE, 55-18-5, Doses [Carcinogen]: 150 MG/KG ONCE, Doses [Promoter]: 0.1% IN DIET BEGINNING 11 WK POST CARCINOGEN DOSE AND CONTINUING FOR DURATION OF STUDY (STUDY DURATION: 56 WK), Route [Carcinogen]: INTRAPERITONEAL, Route [Promoter]: ORAL, Species: RAT, Strain/Sex: F344/MALE): liver: hepatocellular carcinoma or neoplastic nodule
